{"source": "patent US5215889A", "about": "“Catalytic and reactive polypeptides and methods for their preparation and use” (The Regents of the University of California, priority 1989, dated 1993)", "test_in_all_cases": "Hydrolysis of DNP coumarin esters 1-3 by Fv", "assay_type_in_all_cases": "biochemical, murine", "key": {"[1]": {"test_system": "MOPC315 Fv variant Fv(Y34FL), Tyr 34L to Phe", "details": "pH 6.8", "protocol": "(§1) FIG. 22 is a Lineweaver-Burke plot of initial rate data obtained for the hydrolysis of 1 as described in Example 6 of the Experimental section herein. Four μl of a 100-fold concentrated solution of substrate 1 in DMSO was added to the 400 μl of Fv (115 nM) in buffer A while monitoring 7-hydroxycoumarin fluorescence at 25° C. (excitation:355nm; emission: 457 nm). A standard of 7-hydroxycoumarin was added at the completion of each assay to assess quenching of coumarin fluorescence by DNP at high substrate concentrations. The buffer background rate was subtracted from the initial rates. Each point represents the average velocity of at least duplicate experiments. Factor X, Factor Xa, or Russell's viper venom had no hydrolytic activity towards 1.\n(§2) The ability of wild type and mutant Fvs to hydrolyze esters 1-3 was assayed by measuring the rate of coumarin release fluorimetrically at pH 6.8 (Pollack et al. (1988) supra; Pollack (1989) supra). […] Under these conditions, Fv(Y34HL) turns over at least 11 times and still retains 44% of its activity. The loss of activity is likely due to the accumulation of the inhibitory reaction product 8. […] Ester 2 was a poor substrate (kcat (2)=0.015 min^-1); and the hydrolysis of 3 was not accelerated (kcat (3)<0.005 min^-1). […] The initial rate of hydrolysis of 1 by Fv(Y34HL) at pH 6.8 is approximately 45-fold faster than the reaction with either […] (Table 2). At pH 8.7, the reactivity of Fv(Y34HL) and Fv(315) both increase, but differentially (v[Fv(Y34HL ]/v[Fv(315)]=3.3, at 10 μM 1). Under these conditions Fv(Y34HL) catalytically hydrolyzes 1 while Fv(315) reacts stoichiometrically. The increased reactivity of Fv(315) at higher pH may be due to deprotonation of the tyrosine hydroxyl and subsequent transesterification to form a relatively stable phenol ester."}, "[2]": {"molecular_target": "T1, MOPC315 Fv variant Fv(Y34HL), Tyr 34L to His (Mus musculus, UniProt P01729+P01822, Y53H)", "T1 construct": "Antibody-derived VH was prepared by denaturing ion exchange chromatography of authentic MOPC315 Fv, obtained from pepsin digestion of purified IgA; lambda cII fusion with Factor Xa site (IleGluGlyArg) (N, cleaved yes); made in house; host or cells: VL: E. coli MZ1 (cII fusion, inclusion bodies); VH: pepsin-cleaved MOPC315 IgA from mouse ascites", "T1 sequence (P01729 with tags, fused parts or gaps Y53H)": "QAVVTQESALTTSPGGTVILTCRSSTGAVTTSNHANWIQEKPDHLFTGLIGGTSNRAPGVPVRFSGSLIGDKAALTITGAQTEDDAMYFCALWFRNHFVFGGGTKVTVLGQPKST", "T1 sequence (P01822 19-137)": "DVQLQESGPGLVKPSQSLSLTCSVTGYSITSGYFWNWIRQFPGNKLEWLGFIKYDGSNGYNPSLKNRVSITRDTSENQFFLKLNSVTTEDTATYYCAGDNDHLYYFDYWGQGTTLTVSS", "details": "pH 6.8; SE (n = 3)", "protocol": "as §1, §2"}, "[3]": {"molecular_target": "T2, MOPC315 Fv, wild type, Fv(315) (Mus musculus, UniProt P01729+P01822)", "T2 construct": "The Fv fragment (26 kD) is a heterodimer consisting of two peptides, VH (14 kD) and VL (12 kD); made in house; host or cells: MOPC315 myeloma ascites (Balb/c mice), IgA cleaved with pepsin", "T2 sequence (P01822 19-137)": "as above", "T2 sequence (P01729 20-129)": "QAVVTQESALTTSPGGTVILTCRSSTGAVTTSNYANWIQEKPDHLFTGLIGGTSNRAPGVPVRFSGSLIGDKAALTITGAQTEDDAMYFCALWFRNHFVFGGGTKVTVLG", "details": "pH 6.8", "protocol": "as §1, §2"}}, "data": [{"molecule": "O=C(CCCCNc1ccc([N+](=O)[O-])cc1[N+](=O)[O-])Oc1ccc2ccc(=O)oc2c1", "note": "[compound 1, 7-hydroxycoumarin ester of 5-(2,4-dinitrophenyl)-aminopentanoic acid]", "values": [{"measurement": "kcat (Table 2, Fv(Y34FL))", "setting": "[1]", "result": 0.004, "unit": "min"}, {"measurement": "kcat (Table 2, Fv(Y34HL))", "setting": "[2]", "result": "0.18 ± .03 min"}, {"measurement": "kcat (Table 2, Fv(315))", "setting": "[3]", "result": 0.004, "unit": "min"}]}]}
